{"source": "patent US8748445B2", "about": "“Methods for treating glioma” (The UAB Research Foundation, priority 2004, dated 2014)", "key": {"caspase-3": {"tested_on": "caspase-3", "assay": "activated caspase-3 by Western blot analysis", "assay_type": "cell-based, human", "settings": "0.5 mM; D-54MG cells (FIG. 5C)", "protocol": "Because an accumulation of ROS can lead to apoptotic cell death, the ability of system Xc inhibitors to induce apoptosis in glioma cells was examined. […] Often apoptosis is dependent on caspase activities, so it was determined whether the system Xc inhibitors induce activated caspase-3, which is the convergent enzyme in the caspase-dependent signaling cascade. […] With 1 mM sulfasalazine, 90% of cells died over the 5 d incubation (FIG. 5E)."}, "D54-MG glioma cells": {"tested_on": "D54-MG glioma cells", "assay": "intracranial D54-MG luciferase xenograft, bioluminescence imaging", "assay_type": "in vivo, CB-17 scid mice", "protocol": "Therefore, the effect of inhibiting system Xc in an animal model of malignant glioma was examined. In these experiments, both (S)-4-CPG or sulfasalazine were used. […] In the described in vivo experiments, human gliomas were xenografted into the cranium of either female CB-17 scid mice or nude mice, both of which are frequently used animal models for malignant gliomas. The intracranial growth of tumors was assessed using the recently developed […] methodology for visualizing tumor growth.\nIn one set of in vivo experiments, D54-MG glioma cells were stably transfected with the firefly luciferase gene under the control of the CMV promoter. One-half million cells were stereotactically implanted into the cranium of each CB-17 scid mouse. After 7 days, animals were randomized into three groups of 12 animals each. The control group received an intraperitoneal injection of 1 ml dose of saline twice daily. The two test groups received an 8 mg dose of sulfasalazine twice daily for either 1 or 3 weeks. Animals were imaged for tumor size, typically once per week, using a bioluminescence imaging system (IVIS system; Xenogen). Light emission from the tumor regions (in relative photons/second) were quantified using Living Image, version 2.20.1, software provided by Xenogen and plotted as a function of time."}, "cortical astrocytes": {"tested_on": "cortical astrocytes", "assay": "35S-labeled cystine uptake in cortical astrocytes", "assay_type": "cell-based", "parameters": "dose or concentration left out as unconfirmed", "settings": "compared with D-54MG glioma cells (FIG. 2B)", "text": "System Xc is a glutamate-cystine exchanger and can therefore be inhibited if the outward directed gradient for glutamate is eliminated by exposure to high concentrations of extracellular glutamate. The principal hypothesis in this study is that system Xc serves as a pipeline for cellular cystine uptake, with glutamate release being an obligatory by-product. Cystine uptake is the rate-limiting step for the synthesis of GSH, which is the main intracellular antioxidant that protects cells from oxidative stress and resulting reactive oxygen species (ROS) (Jefferies et al., 2003)."}, "glioma cells": {"tested_on": "glioma cells", "assay": "cell cycle: total DNA content by flow cytometry (propidium iodide)", "assay_type": "cell-based, human", "settings": "0.5 mM (FIG. 4D)", "protocol": "To test whether inhibition of cystine uptake affects a specific stage of the cell cycle, changes in total DNA content were measured using flow cytometry following treatment with 0.5 mM (S)-4-CPG and 0.5 mM sulfasalazine. Cells were fixed with para-formaldehyde and stained with the nuclear marker propidium iodide after incubation with drugs."}}, "note": "“Also recorded” adds a separate entry of the source."}
{"smiles": "O=C(O)c1cc(/N=N/c2ccc(S(=O)(=O)Nc3ccccn3)cc2)ccc1O", "note": "[sulfasalazine]", "values": [{"measurement": "activated form of caspase-3", "setting": "caspase-3", "result": "increased the activated form of caspase-3"}, {"measurement": "tumor expansion (relative bioluminescence)", "setting": "D54-MG glioma cells; 8 mg intraperitoneal twice daily for either 1 or 3 weeks, from day 7 (FIG. 7A)", "result": "significantly reduced"}, {"measurement": "tumor growth after retreatment", "setting": "D54-MG glioma cells; retreated at day 53 for 3 days after termination of treatment (FIG. 7A)", "result": "again reduced after retreatment"}, {"measurement": "inhibition of cystine uptake in cortical astrocytes", "setting": "cortical astrocytes", "result": "to a significantly lesser degree; also recorded: only a limited inhibition"}, {"measurement": "cell cycle distribution (total DNA content)", "setting": "glioma cells", "result": "a reduction of cells in G2 phase and an increase in cells in S phase"}]}
